Results on six compounds are retold here after patent US20110223630A1, “METHOD FOR SCREENING FOR COMPOUNDS THAT INHIBIT NEURODEGENERATION” (priority 2008, published 2011).

One experiment deals with commissural neurons. As to the kind of experiment: Dorsal spinal cord (commissural explant) survival assay. It counts as cell-based, rat. Here is the method:
To examine functional roles of DR6 in axonal degeneration and programmed cell death of commissural neurons, an RNAi-based dorsal spinal cord survival assay (Kennedy et al., Cell, 78:425-435 (1994); Wang et al., supra, 1999) was conducted (see FIG. 3). E13 rat or E11.5 mouse embryos were placed in L15 medium (Gibco) and siRNAs (IDT) together with green fluorescent protein (“GFP”)-encoding plasmids were injected into the neural tubes. The siRNAs and plasmids were then delivered to dorsal progenitor cells by electroporation. Dorsal spinal cord explants were dissected out, embedded into a 3D-collagen gel matrix, and cultured in Opti-MEM/F12 medium (Invitrogen) with recombinant netrin-1 ([…]) and 5% horse serum (Sigma) at 37° C. in a 5% CO2 environment. Within 16 hours in response to chemo-attractant netrin-1, commissural axons grow out of the explant into the collagen matrix gel (Kennedy et al., supra, 1994). Commissural axons are visualized by GFP fluorescence by observation using an inverted microscope. […]
Control non-targeting, or targeting DR6 siRNA #2, or targeting DR6 siRNA #3 (IDT) together with either wild-type or mis-match DR6 cDNA and GFP-encoding plasmids. […] Within 16 hours in response to chemo-attractant netrin-1 commissural axons grow out of the explant into the collagen matrix gel (Kennedy et al., Cell 78:425-435 (1994). Commissural axons are visualized by GFP fluorescence by observation using inverted microscope. After 48 hours in culture in the absence of trophic factor support derived from the floorplate, commissural neurons undergo programmed cell death and their axons degenerate (Wang et al., Nature, 401:765-769 (1999)) (FIG. 4B). However, the axonal degeneration program can be blocked by introduction of a targeting DR6-specific siRNA #3 (FIG. 4B). […]
A dorsal spinal cord survival assay (as described in Example 2 above) was conducted using anti-DR6 antibodies. Microscopic observation (using green fluorescence channel for GFP) was employed to visualize commissural axons. […]

The conditions of experiment [1]: patients taking stable doses of Donepezil; changes from baseline; cited from earlier work.
The subject of the next experiment is sensory neurons. In words: NGF deprivation assay in Campenot Chambers, local sensory axon degeneration (TUJ1 stain). It counts as cell-based, mouse. Here is the method: Materials and methods used to generate the data shown in this figure are as follows. To examine whether ligand is required for DR6 function in sensory axonal degeneration, a compartmented culture analysis of sensory axon growth and degeneration was carried out as follows. A Campenot nerve cell chamber system was used to isolate neuronal processes (axons) from the cell bodies in different compartments (separate fluid environments), analogous to neuronal cell bodies in one location of the nervous system projecting their axons to a distal target in another location. The assay was carried out as originally described by Campenot (Campenot et al., J. Neurosci. 11(4): 1126-39 (1991)) with the following modifications. Briefly, 35-mm tissue culture dishes were coated with PDL/Laminin and scratched with a pin rake (Tyler Research) to generate tracks, as illustrated for example in FIGS. 1 and 4 of Campenot et al., supra. […]
To trigger local axonal degeneration, NGF-containing medium from axonal compartments was substituted with neurobasal medium with an NGF blocking antibody (anti-NGF, Genentech, Inc., 20 ug/ml). Zero hours, 6 hours, or 24 to 48 hours following NGF deprivation, sensory neurons were fixed in 4% PFA for 30 minutes at room temperature and processed for immunofluorescence staining with axonal marker TUJ-1 (Covance, 1:500 dilution) to visualize degenerating axons by fluorescence microscopy (FIG. 11B) (as above described in Example 7). […]
To examine whether ligand is required for DR6 function in axonal degeneration program triggered by NGF withdrawal, 30 μg/ml of hDR6-ECD-Fc immunoadhesin protein (described in Example 3 above) or 30 μg/ml of a control Fc (Genentech, Inc.) was included together with anti-NGF treatment in axonal compartments of Campenot Chambers. Zero to 24 hours after NGF deprivation, axons in Campenot Chambers were fixed with 4% PFA/PBS and visualized by immuno-fluorescence staining with TUJ-1 (1:500, Covance)/secondary antibody conjugated to a fluorescence group Alexa 488 (Molecular Probes, BD) (FIG. 11B). […]

Experiment [2] has as its system DR6-AP binding sites on BAX null sensory axons. As to the kind of experiment: In situ DR6-AP sensory axon binding assay after NGF withdrawal. It counts as cell-based, mouse. The note with it: OM99-2 1 uM; BAX null sensory axons E12.5. Here is the method: For the in situ DR6-AP sensory axon binding assay, either wild-type or Bax null sensory explants were cultured in Neurobasal medium/B27 (Invitrogen) as outlined in the Examples 7-8 above, with 50 ng/ml NGF (Roche). Two days post-plating, DRG explants were either left untreated or deprived from NGF as described above in Examples 7-8. Bax inhibitory peptide was added where indicated on FIG. 12B (10 uM, Bax-V5, Tocris). Twelve hours post-NGF deprivation, DRG explants were washed twice with the binding buffer (HBSS, Gibco Cat. No. 14175-095, with 0.2% BSA, 0.1% NaN3, 5 mM CaCl2, 1 mM MgCl2, 20 mM HEPES, pH=7.0). AP binding assay was then carried out by making a 1:1 mixture of DR6-AP conditioned medium and the binding buffer (or control AP conditioned medium and the binding buffer), which was applied directly to DRG explants in 8-well culture slides (Becton, Dickinson and Company) and incubated for 90 minutes at room temperature.
Following the incubation, unbound DR6-AP proteins were washed away by rinsing DRG explants five times with the binding buffer. DRG explants were then fixed with 3.7% formaldehyde diluted in PBS, for 12 minutes at room temperature. The remaining formaldehyde was removed by rinsing DRG explants 3 times with HBS buffer (20 mM HEPES pH=7.0, 150 mM NaCl). Endogenous AP activity was blocked by heat inactivation at 65° C. in HBS buffer for 30 minutes. […]

Residues, ends and D or L forms follow the SMILES beside them. *: point of attachment. Cbz = O=C(OCc1ccccc1)*; CH2F = FC*

On to “5′-CAAUAGGUCAGGAAGAUGGCU-3′ [DR6-specific siRNA #3]”, for which, in the experiment with commissural neurons (DR6 siRNA electroporated with GFP plasmid, 48 hours in culture without floorplate trophic support), the “axonal degeneration of commissural neurons” value is “blocked”.

Consider `CC12CC3CC(C)(C1)CC(N)(C3)C2` [Memantine], for which the “outcome measures SIB, ADCS-ADL19, CIBIC-Plus, NPI, BGP vs placebo” value in experiment [1] is “exhibiting a benefit over placebo”.

For the compound `CC[C@H](C)[C@H](NC(=O)OCc1ccccc1)C(=O)N[C@@H](CCC(=O)OC)C(=O)N[C@H](C(=O)N[C@@H](CC(=O)OC)C(=O)CF)[C@@H](C)O` [Z-IETD-FMK] (Cbz-IE(OMe)TD(OMe)-CH2F), the “sensory axonal degeneration after anti-NGF” value in the experiment on sensory neurons (neurons cultured 5 days, then 24 hours, SP 600125 1 uM, Z-IETD-FMK 10 uM, Z-DEVD-FMK 10 uM) is “delayed”.

Consider (L)-HIV-TAT48-57-PP-JBD20 [L-JNK-I], for which the “axonal degeneration of commissural neurons” value in the experiment with commissural neurons (peptide JNK inhibitor at 1 μM) is recorded as “partially blocked axonal degeneration”.

As for OM99-2, the “sensory axonal degeneration in absence of NGF” value with sensory neurons (BACE inhibitor 1 uM, FIG. 15C) was “blocked”. Also, in experiment [2], the “disappearance of DR6-AP binding sites from sensory axons following NGF withdrawal” value is “can block the disappearance of DR6-AP binding sites”.

“hDR6-ECD-Fc: human DR6 extracellular domain sequence fused with Fc, SEQ ID NO: 4”: the “sensory axonal degeneration induced by NGF withdrawal” value with sensory neurons (30 μg/ml in axonal compartment with anti-NGF, 0, 6 and 24 hours, vs control Fc) is recorded as “delayed sensory axonal degeneration”. Also, the commissural axon degeneration entry in the experiment on commissural neurons (48 hours, 30 μg/ml or 10 μg/ml hDR6-ECD-Fc) is “delayed”.
